Converted amounts (≈) assume the structure as drawn. The source made the active and inactive calls. The calls are words filed in the database; no cut-off is given here.
What was measured:
Clostridioides difficile [1] = assay: Antibacterial activity against Clostridioides difficile ATCC 43255 assessed as inhibition of bacterial growth measured after 24 hrs by CLSI based broth dilution method; assay type: functional
Clostridioides difficile [2] = assay: Antibacterial activity against Clostridioides difficile ribotype 027 infected in colitis induced C57BL/6J mouse assessed as survival rate at 30 mg/kg, po qd pretreated with clindamycin followed by […] infection and compound addition measured on day 5; assay type: functional; conditions: ribotype 027, 120 h, time 5 day
Clostridioides difficile [3] = assay: Antibacterial activity against Clostridioides difficile ribotype 027 infected in colitis induced C57BL/6J mouse assessed as increase in survival rate without recurrence at 30 mg/kg, po qd pretreated with clindamycin followed by […] infection and compound addition measured on day 5; assay type: functional
Clostridioides difficile [4] = assay: Antibacterial activity against Clostridioides difficile ribotype 027 infected in colitis induced C57BL/6J mouse assessed as increase in survival rate without recurrence at 30 mg/kg, po qd pretreated with clindamycin followed by […] infection and compound addition measured on day 15 to day 19; assay type: functional, organism-based; conditions: time 15-19 day
[5] = Toxicity in colitis-induced C57BL/6J mouse infected with Clostridioides difficile ribotype 027 assessed as increase in Enterococcus proportion in gut at 30 mg/kg, po qd pretreated with clindamycin followed by infected with […] and measured on day 6 post treatment by RNA sequencing analysis (reference value: 0%); assay type: organism-based; conditions: in vivo, 144 h, time 6 day
[6] = Toxicity in colitis-induced C57BL/6J mouse infected with Clostridioides difficile ribotype 027 assessed as increase in Klebsiella proportion in gut at 30 mg/kg, po qd pretreated with clindamycin followed by infected with […] and measured on day 6 post treatment by RNA sequencing analysis (reference value: 0%); assay type: organism-based; conditions: in vivo, 144 h, time 6 day
[7] = Toxicity in colitis-induced C57BL/6J mouse infected with Clostridioides difficile ribotype 027 assessed as increase in Escherichia proportion in gut at 30 mg/kg, po qd pretreated with clindamycin followed by infected with […] and measured on day 6 post treatment by RNA sequencing analysis (reference value: 0%); assay type: organism-based; conditions: in vivo, 144 h, time 6 day
[8] = Toxicity in colitis-induced C57BL/6J mouse infected with Clostridioides difficile ribotype 027 assessed as increase in Klebsiella proportion in gut at 30 mg/kg, po qd pretreated with clindamycin followed by infected with […] and measured on day 20 post treatment by RNA sequencing analysis (reference value: 0%); assay type: organism-based; conditions: in vivo, 480 h, time 20 day
[9] = Toxicity in colitis-induced C57BL/6J mouse infected with Clostridioides difficile ribotype 027 assessed as increase in Enterococcus proportion in gut at 30 mg/kg, po qd pretreated with clindamycin followed by infected with […] and measured on day 20 post treatment by RNA sequencing analysis (reference value: 0%); assay type: organism-based; conditions: in vivo, 480 h, time 20 day
[10] = Toxicity in colitis-induced C57BL/6J mouse infected with Clostridioides difficile ribotype 027 assessed as increase in Escherichia proportion in gut at 30 mg/kg, po qd pretreated with clindamycin followed by infected with […] and measured on day 20 post treatment by RNA sequencing analysis (reference value: 0%); assay type: organism-based; conditions: in vivo, 480 h, time 20 day
Clostridioides difficile [11] = assay: Antibacterial activity against Clostridioides difficile RT001/ST3/A+B+ assessed as inhibition of bacterial growth measured after 24 hrs by CLSI based broth dilution method; assay type: functional
Clostridioides difficile [12] = assay: Antibacterial activity against Clostridioides difficile RT002/ST8/A+B+ assessed as inhibition of bacterial growth measured after 24 hrs by CLSI based broth dilution method; assay type: functional
Clostridioides difficile [13] = assay: Antibacterial activity against Clostridioides difficile RT012/ST54/A+B+ assessed as inhibition of bacterial growth measured after 24 hrs by CLSI based broth dilution method; assay type: functional
Clostridioides difficile [14] = assay: Antibacterial activity against Clostridioides difficile RT014/ST14/A+B+ assessed as inhibition of bacterial growth measured after 24 hrs by CLSI based broth dilution method; assay type: functional
Clostridioides difficile [15] = assay: Antibacterial activity against Clostridioides difficile RT015/ST35/A+B+ assessed as inhibition of bacterial growth measured after 24 hrs by CLSI based broth dilution method; assay type: functional
Clostridioides difficile [16] = assay: Antibacterial activity against Clostridioides difficile RT018/ST17/A+B+ assessed as inhibition of bacterial growth measured after 24 hrs by CLSI based broth dilution method; assay type: functional
Clostridioides difficile [17] = assay: Antibacterial activity against Clostridioides difficile RT293/ST129/A+B+ assessed as inhibition of bacterial growth measured after 24 hrs by CLSI based broth dilution method; assay type: functional
Clostridioides difficile [18] = assay: Antibacterial activity against Clostridioides difficile RT027/ST1/A+B+CDT+ assessed as inhibition of bacterial growth measured after 24 hrs by CLSI based broth dilution method; assay type: functional
Clostridioides difficile [19] = assay: Antibacterial activity against Clostridioides difficile NT/ST67/A+B+CDT+ assessed as inhibition of bacterial growth measured after 24 hrs by CLSI based broth dilution method; assay type: functional
Clostridioides difficile [20] = assay: Antibacterial activity against Clostridioides difficile RT130/ST5/A+B+CDT+ assessed as inhibition of bacterial growth measured after 24 hrs by CLSI based broth dilution method; assay type: functional
Clostridioides difficile [21] = assay: Antibacterial activity against Clostridioides difficile NT/ST221/A+B+CDT+ assessed as inhibition of bacterial growth measured after 24 hrs by CLSI based broth dilution method; assay type: functional
Clostridioides difficile [22] = assay: Antibacterial activity against Clostridioides difficile RT017/ST37/A-B+ assessed as inhibition of bacterial growth measured after 24 hrs by CLSI based broth dilution method; assay type: functional
Clostridioides difficile [23] = assay: Antibacterial activity against Clostridioides difficile RT078/ST11/A+B+CDT+ assessed as inhibition of bacterial growth measured after 24 hrs by CLSI based broth dilution method; assay type: functional
Staphylococcus aureus [24] = assay: Antibacterial activity against Staphylococcus aureus ATCC 4330 assessed as inhibition of bacterial growth measured after 16 to 24 hrs by CLSI based broth dilution method; assay type: functional; conditions: time 16-24 hrs
Enterococcus faecalis [25] = assay: Antibacterial activity against Enterococcus faecalis ATCC 29212 assessed as inhibition of bacterial growth measured after 24 hrs by CLSI based broth dilution method; assay type: functional
Enterococcus faecalis [26] = assay: Antibacterial activity against Clinical isolate Enterococcus faecalis assessed as inhibition of bacterial growth measured after 24 hrs by CLSI based broth dilution method; assay type: functional
Enterococcus faecium = assay: Antibacterial activity against Enterococcus faecium ATCC 19434 assessed as inhibition of bacterial growth measured after 24 hrs by CLSI based broth dilution method; assay type: functional
[27] = Toxicity in colitis-induced C57BL/6J mouse infected with Clostridioides difficile ribotype 027 assessed as effect on gut micro-biome at 30 mg/kg, po qd pretreated with clindamycin followed by infected with […] and measured on day 6 post treatment by RNA sequencing analysis; assay type: organism-based; conditions: in vivo, 144 h, time 6 day
[28] = Toxicity in colitis-induced C57BL/6J mouse infected with Clostridioides difficile ribotype 027 assessed as effect on Firmicutes proportion in gut at 30 mg/kg, po qd pretreated with clindamycin followed by infected with […] and measured on day 6 post treatment by RNA sequencing analysis; assay type: organism-based; conditions: in vivo, 144 h, time 6 day
[29] = Toxicity in colitis-induced C57BL/6J mouse infected with Clostridioides difficile ribotype 027 assessed as effect on Acinetobacter proportion in gut at 30 mg/kg, po qd pretreated with clindamycin followed by infected with […] and measured on day 6 post treatment by RNA sequencing analysis; assay type: organism-based; conditions: in vivo, 144 h, time 6 day
[30] = Genotoxicity in Salmonella typhimurium TA98 incubated for 90 min by Ames test; assay type: toxicity; conditions: salmonella enterica subsp. enterica serovar typhimurium, 1.5 h
[31] = Genotoxicity in Salmonella typhimurium TA100 incubated for 90 min by Ames test; assay type: toxicity; conditions: salmonella enterica subsp. enterica serovar typhimurium, 1.5 h
[32] = Genotoxicity in Salmonella typhimurium TA98 incubated for 90 min in presence of S9 fraction by Ames test; assay type: toxicity, subcellular; conditions: salmonella enterica subsp. enterica serovar typhimurium, s9, 1.5 h
[33] = Genotoxicity in Salmonella typhimurium TA100 incubated for 90 min in presence of S9 fraction by Ames test; assay type: toxicity, subcellular; conditions: salmonella enterica subsp. enterica serovar typhimurium, s9, 1.5 h
[34] = molecular target: Voltage-gated inwardly rectifying potassium channel KCNH2 (Homo sapiens, UniProt Q12809); assay: Inhibition of hERG expressed in HEK293 cells at 10 uM incubated for 5 mins by whole cell patch clamp assay; assay type: toxicity, cell-based; conditions: hek293, 5 min
[35] = Aqueous kinetic solubility of the compound at pH 7.4 incubated for 2 hrs by UPLC-MS analysis; assay type: physicochemical; conditions: read-out: Kinetic_solubility
[36] = Effective permeability of the compound at pH 7.4 at 25 uM incubated for 5 hrs by skin PAMPA analysis; assay type: ADME; conditions: pH 7.4, 5 h
[37] = Effective permeability of the compound at pH 5.5 at 25 uM incubated for 5 hrs by skin PAMPA analysis; assay type: ADME; conditions: pH 5.5, 5 h
Staphylococcus aureus [38] = assay: Antibacterial activity against methicillin-resistant Staphylococcus aureus assessed as inhibition of bacterial growth measured after 16 to 24 hrs by CLSI based broth dilution method; assay type: functional; conditions: time 16-24 hrs
Staphylococcus aureus [39] = assay: Antibacterial activity against clinical isolate methicillin-resistant Staphylococcus aureus assessed as log reduction in CFU/ml at 16 times of MIC measured after 24 hrs by time killing analysis; assay type: functional
Staphylococcus aureus [40] = assay: In vivo antibacterial activity against methicillin-resistant Staphylococcus aureus KCCM 40511 ATCC 33593 infected in soft-skin tissue BALB/c mouse infection model assessed as reduction in total number of bacteria in wound area treated as ointment administered twice at 6 and 12 hrs and measured after 24 hrs relative to mupirocin; assay type: functional

Voltage-gated inwardly rectifying potassium channel KCNH2, sequence (Q12809 whole entry): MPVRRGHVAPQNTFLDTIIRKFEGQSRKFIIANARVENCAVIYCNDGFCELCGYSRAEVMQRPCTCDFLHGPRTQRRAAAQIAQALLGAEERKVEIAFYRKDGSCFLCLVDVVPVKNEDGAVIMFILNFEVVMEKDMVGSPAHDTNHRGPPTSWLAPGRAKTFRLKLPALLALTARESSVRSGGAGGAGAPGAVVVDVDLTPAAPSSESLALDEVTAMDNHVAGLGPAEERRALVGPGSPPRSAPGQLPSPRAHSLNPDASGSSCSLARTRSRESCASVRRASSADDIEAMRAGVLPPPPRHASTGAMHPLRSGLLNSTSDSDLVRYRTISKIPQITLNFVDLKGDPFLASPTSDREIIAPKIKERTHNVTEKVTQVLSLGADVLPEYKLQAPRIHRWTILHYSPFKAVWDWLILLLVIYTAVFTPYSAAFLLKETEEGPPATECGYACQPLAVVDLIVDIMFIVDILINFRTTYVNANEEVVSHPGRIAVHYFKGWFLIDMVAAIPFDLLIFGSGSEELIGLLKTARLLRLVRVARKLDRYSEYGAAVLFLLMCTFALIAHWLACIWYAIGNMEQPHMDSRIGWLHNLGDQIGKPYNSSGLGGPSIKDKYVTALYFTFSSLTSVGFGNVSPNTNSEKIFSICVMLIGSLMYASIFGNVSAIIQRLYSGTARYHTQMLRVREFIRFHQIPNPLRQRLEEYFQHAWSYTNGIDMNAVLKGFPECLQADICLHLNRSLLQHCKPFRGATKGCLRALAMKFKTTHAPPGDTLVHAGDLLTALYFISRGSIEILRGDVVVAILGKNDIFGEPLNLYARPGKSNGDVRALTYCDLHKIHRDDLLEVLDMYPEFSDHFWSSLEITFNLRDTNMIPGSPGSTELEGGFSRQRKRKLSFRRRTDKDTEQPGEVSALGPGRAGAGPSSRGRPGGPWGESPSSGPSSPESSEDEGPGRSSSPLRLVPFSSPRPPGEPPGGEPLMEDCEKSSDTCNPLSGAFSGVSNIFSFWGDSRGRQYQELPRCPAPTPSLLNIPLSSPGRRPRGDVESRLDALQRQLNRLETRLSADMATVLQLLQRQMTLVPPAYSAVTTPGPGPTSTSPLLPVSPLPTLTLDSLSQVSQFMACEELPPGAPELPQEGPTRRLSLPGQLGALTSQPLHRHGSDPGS

| SMILES | MIC (Clostridioides difficile [1]) [µg/mL] | survival at 30 mg/kg (Clostridioides difficile [2]) [%] | Activity [5] [%] | Activity [6] [%] | Activity [7] [%] | Activity [8] [%] | Activity [9] [%] | Activity [10] [%] | MIC (Clostridioides difficile [11]) [µg/mL] | MIC (Clostridioides difficile [12]) [µg/mL] | MIC (Clostridioides difficile [13]) [µg/mL] | MIC (Clostridioides difficile [14]) [µg/mL] | MIC (Clostridioides difficile [15]) [µg/mL] | MIC (Clostridioides difficile [16]) [µg/mL] | MIC (Clostridioides difficile [17]) [µg/mL] | MIC (Clostridioides difficile [18]) [µg/mL] | MIC (Clostridioides difficile [19]) [µg/mL] | MIC (Clostridioides difficile [20]) [µg/mL] | MIC (Clostridioides difficile [21]) [µg/mL] | MIC (Clostridioides difficile [22]) [µg/mL] | also measured |
| --- | --- | --- | --- | --- | --- | --- | --- | --- | --- | --- | --- | --- | --- | --- | --- | --- | --- | --- | --- | --- | --- |
| CN[C@H](CC(C)C)C(=O)N[C@H]1C(=O)N[C@@H](CC(N)=O)C(=O)N[C@H]2C(=O)N[C@H]3C(=O)N[C@H](C(=O)N[C@H](C(=O)O)c4cc(O)cc(O)c4-c4cc3ccc4O)[C@H](O)c3ccc(c(Cl)c3)Oc3cc2cc(c3O[C@@H]2O[C@H](CO)[C@@H](O)[C@H](O)[C@H]2O[C@H]2C[C@](C)(N)[C@H](O)[C@H](C)O2)Oc2ccc(cc2Cl)[C@H]1O [VANCOMYCIN] | 1 (≈ 0.69 µM) | 40 | 0 | 8.78 | 24.55 | 1.39 | 21.53 | 5.22 | 1 (≈ 0.69 µM) | 1 (≈ 0.69 µM) | 1 (≈ 0.69 µM) | 1 (≈ 0.69 µM) | 0.5 (≈ 0.345 µM) | 1 (≈ 0.69 µM) | 1 (≈ 0.69 µM) | 1 (≈ 0.69 µM) | 2 (≈ 1.38 µM) | 1 (≈ 0.69 µM) | 2 (≈ 1.38 µM) | 0.5 (≈ 0.345 µM) | Activity (Clostridioides difficile [3]; time 5 day): 30%; Activity (Clostridioides difficile [4]): inactive; MIC (Clostridioides difficile [23]): 1 µg/mL (≈ 0.69 µM) |
| C/C=C(\NC(=O)c1csc(-c2csc(-c3ccc4c(n3)-c3csc(n3)[C@H]([C@@H](C)O)NC(=O)c3csc(n3)[C@H](C(C)C)NC(=O)c3csc(n3)/C(=C/C)NC(=O)[C@H]([C@@H](C)O)NC(=O)c3csc-4n3)n2)n1)C(=O)NCCn1c([N+](=O)[O-])cnc1C | 0.125 (≈ 0.101 µM) | 80 | 0.52 | 0.94 | 2.88 | 0.15 | 1.62 | 0.93 | 0.125 (≈ 0.101 µM) | 0.125 (≈ 0.101 µM) | 0.125 (≈ 0.101 µM) | 0.125 (≈ 0.101 µM) | 0.125 (≈ 0.101 µM) | 0.125 (≈ 0.101 µM) | 0.125 (≈ 0.101 µM) | 0.125 (≈ 0.101 µM) | 0.125 (≈ 0.101 µM) | 0.125 (≈ 0.101 µM) | 0.125 (≈ 0.101 µM) | 0.125 (≈ 0.101 µM) | MIC (Staphylococcus aureus [24]): 0.25 µg/mL (≈ 0.202 µM); MIC (Enterococcus faecalis [25]): 0.25 µg/mL (≈ 0.202 µM); MIC (Enterococcus faecalis [26]): 0.25 µg/mL (≈ 0.202 µM); MIC (Enterococcus faecium): 0.25 µg/mL (≈ 0.202 µM); Activity (Clostridioides difficile [3]; time 5.0 day): Active; Activity [27]: Non-Toxic; Activity [28]: Non-Toxic; Activity [29]: Non-Toxic; Activity [30]: Non-Toxic; Activity [31]: Non-Toxic; Activity [32]: Non-Toxic; Activity [33]: Non-Toxic; inhibition (INH) [34]: Active; MIC (Clostridioides difficile [23]): 0.125 µg/mL (≈ 0.101 µM) |
| C/C=C(\NC(=O)c1csc(-c2csc(-c3ccc4c(n3)-c3csc(n3)[C@H]([C@@H](C)O)NC(=O)c3csc(n3)[C@H](C(C)C)NC(=O)c3csc(n3)/C(=C/C)NC(=O)[C@H]([C@@H](C)O)NC(=O)c3csc-4n3)n2)n1)C(=O)NCCN1CCN(C(C)C)CC1 | 0.5 (≈ 0.403 µM) |  |  |  |  |  |  |  |  |  |  |  |  |  |  |  |  |  |  |  | MIC (Staphylococcus aureus [24]): 0.5 µg/mL (≈ 0.403 µM); solubility kinetic at 2 h [35]: 150 µg/mL (≈ 121 µM); Peff [36]: Impermeable; Peff [37]: Impermeable; MIC50 (Staphylococcus aureus [38]): 2 µg/mL (≈ 1.61 µM); MIC90 (Staphylococcus aureus [38]): 4 µg/mL (≈ 3.22 µM); Activity (Staphylococcus aureus [39]): >=3 log10CFU/ml; fold change (FC) (Staphylococcus aureus [40]): 1000 |
